Here are results for four molecules from US20220031680A1, “Donecopride As Neuroprotective Agent In the Treatment of Neurodegenerative Diseases” (priority 2018, published 2022).

Marks after values point to notes of the source that are not given here.

The experiment relates to Tau (AT100). Kind of experiment: Phosphorylation of Tau (AT100) in MAP-2 hippocampal neurons injured with Aβ1-42. The conditions noted are these: for Area of Tau (AT100)/neurons (% of control): Aβ 1-42 (20 μM) 24 h; for concentration of maximal effect on Tau hyperphosphorylation: Aβ1-42 injured hippocampal neurons. It is filed as cell-based, rat. The procedure: The hippocampal neurons were exposed with Aβ solutions (see below) after 17 days of culture. The Aβ1-42 preparation was done following the procedure described by Callizot et al. (2013) J. Neurosci. Res. 91706-716. Briefly, Aβ1-42 peptide was dissolved in the defined culture medium mentioned above, at an initial concentration of 40 μM. This solution was gently agitated for 3 days at 37° C. in the dark and immediately used after being properly diluted in culture medium to the concentrations used (20 μM (plate 1) or 2.5 μM (plate 2) corresponding to 2 μM or 0.25 μM of oligomers (AβO) respectively).
Donecopride fumarate was solved in culture medium and preincubated 1 h before Aβ application. Aβ1-42 preparation was added to a final concentration of 20 or 2.5 μM (=2 μM or 0.25 μM of AβO, evaluated by automatic Western Blot) diluted in control medium in presence of Donecopride.
24 hours after intoxication, the hippocampal neurons were fixed by a cold solution of ethanol (95%) and acetic acid (5%) for 5 min at −20° C. After permeabilization with 0.1% of saponin, cells were incubated for 2 h with:
b) mouse monoclonal antibody anti-phospho Tau (AT100) at dilution of 1/400 in PBS containing 1% fetal calf serum and 0.1% of saponin.
For each condition, 30 pictures (representative of the whole well area) per well were taken using ImageXpress (Molecular Devices) at 20× magnification. All images were taken with the same acquisition parameters. Analyses were performed automatically by using Custom Module Editor (Molecular Devices).
The following endpoints were assessed: • Total number of neurons (neuron survival, number of MAP-2 positive neurons) • Neurite network (in μm of MAP-2 positive neurons) • area of tau in neurons (μm^2, overlapping with MAP-2 positive neurons).
Injury: The hippocampal neurons were exposed with Aβ solutions (see below) after 17 days of culture. The Aβ1-42 preparation was done following the procedure described by Callizot et al. (2013) J. Neurosci. Res. 91:706-716. The batch number of the Aβ1-42 used in this study contains 10% of oligomers (quantification by WB as performed in Combes et al. (2015) J. Neurosci. Res. 93:633-643). Briefly, Aβ1-42 peptide was dissolved in the defined culture medium mentioned above, at an initial concentration of 40 μmol/1. This solution was gently agitated for 3 days at 37° C. in the dark and immediately used after being properly diluted in culture medium to the concentrations used (20 μmol/l or 2.5 μmol/l corresponding to 2 μmol/l or 0.25 μmol/l of oligomers (AβO) respectively). Aβ1-42 preparation was added to a final concentration of 20 or 2.5 μmol/l (respectively 2 μmol/l or 0.25 μmol/l of AβO, determined by automatic WB) diluted in control medium in presence of the compounds.
Immunostaining: MAP-2/AT100—After fixation and permeabilization, cells were incubated for 2 hours with: • a chicken polyclonal antibody anti microtubule-associated-protein 2 (MAP-2) at dilution of 1/1000 in PBS containing 1% fetal calf serum and 0.1% saponin (this antibody stains specifically cell bodies and neurites, allowing study of neuronal cell death and neurite network); and • a mouse monoclonal antibody anti-phospho Tau (AT100) at dilution of 1/100 in PBS containing 1% fetal calf serum and 0.1% saponin.
For each condition, 30 pictures (representative of the whole well area) per well were taken using ImageXpress® (Molecular Devices) with 20× magnification. All images were generated using the same acquisition parameters. From images, analyses were directly and automatically performed by Custom Module Editor® (Molecular Devices). The following read-outs were investigated: • Total number of neurons (neuron survival, number of MAP-2 positive neurons) • Neurite network (in μm of MAP-2 positive neurons) • Area of AT100 (μm^2, overlapping with MAP-2 positive neurons).

For `COc1cc2c(cc1OC)C(=O)C(CC1CCN(Cc3ccccc3)CC1)C2` (stereo not shown) [Donepezil, reference compound], under “1 μM”, the “Area of Tau (AT100)/neurons (% of control)” value (shortened to “Area of Tau … (% of control)”) is on record as 151* % of control.
As for `COc1cc(N)c(F)cc1C(=O)CCC1CCN(CC2CCCC2)CC1` [MR33583], the “concentration of maximal effect on Tau hyperphosphorylation” value lay within 50 to 100 nM.
For `COc1cc(N)c(Cl)cc1C(=O)CCC1CCN(CC2CCCCC2)CC1` [Donecopride], the “Area of Tau … (% of control)” value (1 nM) is listed as 204 % of control; the “Area of Tau … (% of control)” value (5 nM) is listed as 201 % of control; the “Area of Tau … (% of control)” value (10 nM) is 175 % of control; the “Area of Tau … (% of control)” value (50 nM) is 161* % of control; the “Area of Tau … (% of control)” value (100 nM) is listed as 154* % of control; the “Area of Tau … (% of control)” value (500 nM) was 152* % of control. Besides, where the note is “1 μM”, the “Area of Tau … (% of control)” value is listed as 198 % of control.
As to `COc1cc(N)c(F)cc1C(=O)CCC1CCN(CC2CCCCC2)CC1` [Flucopride], the “concentration of maximal effect on Tau hyperphosphorylation” value was found to be 50 nM.
